Source: patent US5955463A, “Quinazoline thymidylate synthase inhibitors” (Zeneca Limited, priority 1992, dated 1999)

How the values were obtained:
[1] = tested on: human breast cancer cell line MCF-7; test: Test (c): inhibition of growth of human breast cancer cell line MCF-7 in cell culture; assay type: cell-based; settings: MCF7, MCF-7 cell culture growth
Text: (c) An assay which determines the ability of a test compound to inhibit the growth of the human breast cancer cell line MCF-7 in cell culture.

[2] = tested on: leukaemia cell line L1210; test: Test (b): inhibition of growth of leukaemia cell line L1210 in cell culture; assay type: cell-based; settings: Mus musculus
Text: (b) An assay which determines the ability of a test compound to inhibit the growth of the leukaemia cell line L1210 in cell culture.

[3] = molecular target: T1, thymidylate synthase (Mus musculus, UniProt P07607); test: Test (a): in vitro inhibition of thymidylate synthase (partially purified from L1210 mouse leukaemia cells); assay type: biochemical
T1 construct: obtained in partially purified form from L1210 mouse leukaemia cells; endogenous in cells; host or cells: L1210 mouse leukaemia cells
T1 sequence (P07607 whole entry): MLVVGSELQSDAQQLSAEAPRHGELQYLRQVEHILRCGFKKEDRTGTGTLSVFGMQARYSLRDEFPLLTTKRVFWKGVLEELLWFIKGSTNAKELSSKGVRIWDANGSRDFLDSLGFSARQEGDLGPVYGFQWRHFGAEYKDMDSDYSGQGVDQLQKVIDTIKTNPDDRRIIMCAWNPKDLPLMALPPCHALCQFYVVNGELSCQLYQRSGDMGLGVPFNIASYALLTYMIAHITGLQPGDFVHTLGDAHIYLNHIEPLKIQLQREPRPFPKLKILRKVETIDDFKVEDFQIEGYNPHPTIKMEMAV
Text: (a) An in vitro assay which determines the ability of a test compound to inhibit the enzyme thymidylate synthase.

[4] = tested on: human breast, ovarian and liver cancer; settings: clinical trials; cited from earlier work
[5] = particularly liver and kidney; cited from earlier work

Row | SMILES | IC50 [1] | IC50 [2] | IC50 [3] | activity against human breast, ovarian and liver cancer [4] | symptoms of toxicity in humans [5]
1 | C#CCN(Cc1cc2c(=O)[nH]c(C)nc2cc1C)c1ccc(C(=O)N[C@@H](CCc2nnn[nH]2)C(=O)O)c(F)c1 [(2S)-2-{o-fluoro-p-[N-(2,7-dimethyl-4-oxo-3,4-dihydroquinazolin-6-ylmethyl)-N-(prop-2-ynyl)amino]benzamido}-4-(tetrazol-5-yl)butyric acid] | ~10 nM | ~20 nM | – | – | –
2 | Cc1nc2cc(C)c(CN(C)c3ccc(C(=O)N[C@@H](CCc4nnn[nH]4)C(=O)O)c(F)c3)cc2c(=O)[nH]1 [(2S)-2-{o-fluoro-p-[N-(2,7-dimethyl-4-oxo-3,4-dihydroquinazolin-6-ylmethyl)-N-methylamino]benzamido}-4-(tetrazol-5-yl)butyric acid] | ~40 nM | ~70 nM | ~2 nM | – | –
3 | C#CCN(Cc1ccc2nc(C)[nH]c(=O)c2c1)c1ccc(C(=O)N[C@@H](CCc2nnn[nH]2)C(=O)O)cc1 [(2S)-2-{p-[N-(2-methyl-4-oxo-3,4-dihydroquinazolin-6-ylmethyl)-N-(prop-2-ynyl)amino]benzamido}-4-(tetrazol-5-yl)butyric acid] | ~40 nM | ~120 nM | ~13 nM | – | –
4 | C#CCN(Cc1ccc2nc(N)[nH]c(=O)c2c1)c1ccc(C(=O)N[C@@H](CCC(=O)O)C(=O)O)cc1 [CB3717] | – | – | – | promising activity against human breast, ovarian and liver cancer | shows symptoms of toxicity in humans, particularly in relation to the liver and kidney
